Measured values: patent publication EP3002287B1, “Thiochromeno[2,3-c]quinolin-12-one derivatives and their use as topoisomerase inhibitors” (National Defense Medical Center, priority 2014, dated 2016)

What was measured:
CCRF-CEM = assay: NCI in vitro 60-cell drug screen (SRB assay); format: cell-based; conditions: CCRF-CEM (Leukemia); 10^-5 molar concentration; 48 hours
K-562 = assay: NCI in vitro 60-cell drug screen (SRB assay); format: cell-based; conditions: K-562 (Leukemia); 10^-5 molar concentration; 48 hours
MOLT-4 = assay: NCI in vitro 60-cell drug screen (SRB assay); format: cell-based; conditions: MOLT-4 (Leukemia); 10^-5 molar concentration; 48 hours
SR = assay: NCI in vitro 60-cell drug screen (SRB assay); format: cell-based; conditions: SR (Leukemia); 10^-5 molar concentration; 48 hours
A549/ATCC = assay: NCI in vitro 60-cell drug screen (SRB assay); format: cell-based; conditions: A549/ATCC (Non-small cell lung cancer); 10^-5 molar concentration; 48 hours
HOP-62 = assay: NCI in vitro 60-cell drug screen (SRB assay); format: cell-based; conditions: HOP-62 (Non-small cell lung cancer); 10^-5 molar concentration; 48 hours
HOP-92 = assay: NCI in vitro 60-cell drug screen (SRB assay); format: cell-based; conditions: HOP-92 (Non-small cell lung cancer); 10^-5 molar concentration; 48 hours
NCI-H322M = assay: NCI in vitro 60-cell drug screen (SRB assay); format: cell-based; conditions: NCI-H322M (Non-small cell lung cancer); 10^-5 molar concentration; 48 hours
COLO 205 = assay: NCI in vitro 60-cell drug screen (SRB assay); format: cell-based; conditions: COLO 205 (Colon cancer); 10^-5 molar concentration; 48 hours
HCC-2998 = assay: NCI in vitro 60-cell drug screen (SRB assay); format: cell-based; conditions: HCC-2998 (Colon cancer); 10^-5 molar concentration; 48 hours
HCT-116 = assay: NCI in vitro 60-cell drug screen (SRB assay); format: cell-based; conditions: HCT-116 (Colon cancer); 10^-5 molar concentration; 48 hours
HCT-15 = assay: NCI in vitro 60-cell drug screen (SRB assay); format: cell-based; conditions: HCT-15 (Colon cancer); 10^-5 molar concentration; 48 hours
KM12 = assay: NCI in vitro 60-cell drug screen (SRB assay); format: cell-based; conditions: KM12 (Colon cancer); 10^-5 molar concentration; 48 hours
SW-620 = assay: NCI in vitro 60-cell drug screen (SRB assay); format: cell-based; conditions: SW-620 (Colon cancer); 10^-5 molar concentration; 48 hours
SF-268 = assay: NCI in vitro 60-cell drug screen (SRB assay); format: cell-based; conditions: SF-268 (CNS cancer); 10^-5 molar concentration; 48 hours
SF-295 = assay: NCI in vitro 60-cell drug screen (SRB assay); format: cell-based; conditions: SF-295 (CNS cancer); 10^-5 molar concentration; 48 hours
U251 = assay: NCI in vitro 60-cell drug screen (SRB assay); format: cell-based; conditions: U251 (CNS cancer); 10^-5 molar concentration; 48 hours
MALME-3M = assay: NCI in vitro 60-cell drug screen (SRB assay); format: cell-based; conditions: MALME-3M (Melanoma); 10^-5 molar concentration; 48 hours
M14 = assay: NCI in vitro 60-cell drug screen (SRB assay); format: cell-based; conditions: M14 (Melanoma); 10^-5 molar concentration; 48 hours
MDA-MB-435 = assay: NCI in vitro 60-cell drug screen (SRB assay); format: cell-based; conditions: MDA-MB-435 (Melanoma); 10^-5 molar concentration; 48 hours
SK-MEL-2 = assay: NCI in vitro 60-cell drug screen (SRB assay); format: cell-based; conditions: SK-MEL-2 (Melanoma); 10^-5 molar concentration; 48 hours
SK-MEL-28 = assay: NCI in vitro 60-cell drug screen (SRB assay); format: cell-based; conditions: SK-MEL-28 (Melanoma); 10^-5 molar concentration; 48 hours
SK-MEL-5 = assay: NCI in vitro 60-cell drug screen (SRB assay); format: cell-based; conditions: SK-MEL-5 (Melanoma); 10^-5 molar concentration; 48 hours
UACC-257 = assay: NCI in vitro 60-cell drug screen (SRB assay); format: cell-based; conditions: UACC-257 (Melanoma); 10^-5 molar concentration; 48 hours
UACC-62 = assay: NCI in vitro 60-cell drug screen (SRB assay); format: cell-based; conditions: UACC-62 (Melanoma); 10^-5 molar concentration; 48 hours
IGROV1 = assay: NCI in vitro 60-cell drug screen (SRB assay); format: cell-based; conditions: IGROV1 (Ovarian cancer); 10^-5 molar concentration; 48 hours
A498 = assay: NCI in vitro 60-cell drug screen (SRB assay); format: cell-based; conditions: A498 (Renal cancer); 10^-5 molar concentration; 48 hours
ACHN = assay: NCI in vitro 60-cell drug screen (SRB assay); format: cell-based; conditions: ACHN (Renal cancer); 10^-5 molar concentration; 48 hours
CAKI-1 = assay: NCI in vitro 60-cell drug screen (SRB assay); format: cell-based; conditions: CAKI-1 (Renal cancer); 10^-5 molar concentration; 48 hours
TK-10 = assay: NCI in vitro 60-cell drug screen (SRB assay); format: cell-based; conditions: TK-10 (Renal cancer); 10^-5 molar concentration; 48 hours
UO-31 = assay: NCI in vitro 60-cell drug screen (SRB assay); format: cell-based; conditions: UO-31 (Renal cancer); 10^-5 molar concentration; 48 hours
MCF7 = assay: NCI in vitro 60-cell drug screen (SRB assay); format: cell-based; conditions: MCF7 (Breast cancer); 10^-5 molar concentration; 48 hours
MDA-MB-231/ATCC = assay: NCI in vitro 60-cell drug screen (SRB assay); format: cell-based; conditions: MDA-MB-231/ATCC (Breast cancer); 10^-5 molar concentration; 48 hours
BT-549 = assay: NCI in vitro 60-cell drug screen (SRB assay); format: cell-based; conditions: BT-549 (Breast cancer); 10^-5 molar concentration; 48 hours
T-47D = assay: NCI in vitro 60-cell drug screen (SRB assay); format: cell-based; conditions: T-47D (Breast cancer); 10^-5 molar concentration; 48 hours
MDA-MB-486 = assay: NCI in vitro 60-cell drug screen (SRB assay); format: cell-based; conditions: MDA-MB-486 (Breast cancer); 10^-5 molar concentration; 48 hours
60 cell lines = assay: NCI in vitro 60-cell drug screen (SRB assay), whole panel statistics; conditions: mean over the cell panel; 10^-5 molar concentration; 48 hours

| Compound | Growth percent (CCRF-CEM) | Growth percent (K-562) | Growth percent (MOLT-4) | Growth percent (SR) | Growth percent (A549/ATCC) | Growth percent (HOP-62) | Growth percent (HOP-92) | Growth percent (NCI-H322M) | Growth percent (COLO 205) | Growth percent (HCC-2998) | Growth percent (HCT-116) | Growth percent (HCT-15) | Growth percent (KM12) | Growth percent (SW-620) | Growth percent (SF-268) | Growth percent (SF-295) | Growth percent (U251) | Growth percent (MALME-3M) | Growth percent (M14) | Growth percent (MDA-MB-435) | further results |
| --- | --- | --- | --- | --- | --- | --- | --- | --- | --- | --- | --- | --- | --- | --- | --- | --- | --- | --- | --- | --- | --- |
| O=c1c2ccc(Cl)cc2sc2c(Cl)nc3ccccc3c12 [Compound 3, 6,9-Dichloro-12H-thiochromeno[2,3-c]quinolin-12-one] | 93.12% | 101.04% | 98.04% | 89.02% | 104.74% | 82.02% | 90.83% | 100.12% | 112.15% | 123.28% | 102.27% | 102.28% | 111.27% | 99.06% | 109.60% | 90.26% | 101.71% | 95.87% | 106.18% | 100.64% | Growth percent (SK-MEL-2): 95.54%; Growth percent (SK-MEL-28): 101.80%; Growth percent (SK-MEL-5): 97.42%; Growth percent (UACC-257): 104.47%; Growth percent (UACC-62): 89.69%; Growth percent (IGROV1): 96.06%; Growth percent (A498): 106.06%; Growth percent (ACHN): 86.84%; Growth percent (CAKI-1): 94.31%; Growth percent (TK-10): 108.56%; Growth percent (UO-31): 66.06%; Growth percent (MCF7): 82.58%; Growth percent (MDA-MB-231/ATCC): 84.28%; Growth percent (BT-549): 110.01%; Growth percent (T-47D): 110.10%; Growth percent (MDA-MB-486): 98.57%; Growth percent, Mean (60 cell lines): 98.11% |
| CN1CCN(c2nc3ccccc3c3c(=O)c4cc(Cl)ccc4sc23)CC1 [Compound 8, 10-Chloro-6-(4-methylpiperazin-1-yl)-12H-thiochromeno[2,3-c]q uinolin-12-one] | 91.60% | 72.98% | 87.97% | 86.41% | 99.80% | 49.41% | 17.97% | 77.04% | 90.06% | 96.87% | 80.94% | 93.94% | 110.71% | 95.50% | 82.98% | 91.69% | 92.52% | 108.36% | 102.15% | 105.80% | Growth percent (SK-MEL-2): 97.53%; Growth percent (SK-MEL-28): 107.92%; Growth percent (SK-MEL-5): 99.54%; Growth percent (UACC-257): 100.55%; Growth percent (UACC-62): 99.27%; Growth percent (IGROV1): 80.08%; Growth percent (A498): 79.33%; Growth percent (ACHN): 89.73%; Growth percent (CAKI-1): 87.50%; Growth percent (TK-10): 97.07%; Growth percent (UO-31): 48.97%; Growth percent (MCF7): 76.60%; Growth percent (MDA-MB-231/ATCC): 57.30%; Growth percent (BT-549): 96.25%; Growth percent (T-47D): 82.24%; Growth percent (MDA-MB-486): 102.02%; Growth percent, Mean (60 cell lines): 86.81% |
| O=c1c2cc(Cl)ccc2sc2c(N3CCN(CCO)CC3)nc3ccccc3c12 [Compound 10, 10-Chloro-6-(4-(2-hydroxyethyl)piperazin-1-yl)-12H-thiochrom eno[2,3-c]quinolin-12one] | 83.46% | 35.47% | 70.01% | 79.07% | 95.49% | 67.83% | 39.64% | 82.85% | 88.90% | 103.49% | 69.33% | 82.92% | 101.86% | 88.11% | 87.80% | 100.32% | 83.31% | 119.20% | 101.70% | 98.24% | Growth percent (SK-MEL-2): 104.06%; Growth percent (SK-MEL-28): 100.66%; Growth percent (SK-MEL-5): 94.13%; Growth percent (UACC-257): 102.79%; Growth percent (UACC-62): 91.36%; Growth percent (IGROV1): 71.67%; Growth percent (A498): 62.20%; Growth percent (ACHN): 83.05%; Growth percent (CAKI-1): 87.87%; Growth percent (TK-10): 93.19%; Growth percent (UO-31): 42.34%; Growth percent (MCF7): 51.73%; Growth percent (MDA-MB-231/ATCC): 55.49%; Growth percent (BT-549): 90.05%; Growth percent (T-47D): 87.22%; Growth percent (MDA-MB-486): 81.67%; Growth percent, Mean (60 cell lines): 84.06% |
| O=c1c2cc(Cl)ccc2sc2c(N3CCN(Cc4ccccc4)CC3)nc3ccccc3c12 [Compound 11, 6-(4-Benzylpiperazin-1-yl)-10-chloro-12H-thiochromeno[2,3-c]q uinolin-12-one] | 95.42% | 87.84% | 90.91% | 85.15% | 106.37% | 87.72% | 70.17% | 88.92% | 105.64% | 99.32% | 98.59% | 94.51% | 107.75% | 93.08% | 100.42% | 94.34% | 96.69% | 112.36% | 93.00% | 96.99% | Growth percent (SK-MEL-2): 107.37%; Growth percent (SK-MEL-28): 104.19%; Growth percent (SK-MEL-5): 98.38%; Growth percent (UACC-257): 95.39%; Growth percent (UACC-62): 96.00%; Growth percent (IGROV1): 93.49%; Growth percent (A498): 94.17%; Growth percent (ACHN): 96.39%; Growth percent (CAKI-1): 94.03%; Growth percent (TK-10): 124.99%; Growth percent (UO-31): 64.91%; Growth percent (MCF7): 68.32%; Growth percent (MDA-MB-231/ATCC): 89.11%; Growth percent (BT-549): 114.05%; Growth percent (T-47D): 89.22%; Growth percent (MDA-MB-486): 98.53%; Growth percent, Mean (60 cell lines): 96.19% |
